This passage reports Ki results from publication PMC3071891 (Journal of inorganic biochemistry, 2010).

The target of test [1] is T1, Giardia lamblia fructose 1,6-bisphosphate aldolase (GlFBPA) (Giardia intestinalis, UniProt A8B2U2). Description: GlFBPA inhibition constants, steady-state kinetics.
Test [2] deals with T1, Giardia lamblia fructose 1,6-bisphosphate aldolase (GlFBPA). The note with it: read-out: GlFBPA inhibition constant (Ki); inert substrate analog; ref [25]; cited from earlier work.

Structures are written as SMILES. Where two headings read alike, the source gives them in different places.

T1 sequence (A8B2U2 whole entry): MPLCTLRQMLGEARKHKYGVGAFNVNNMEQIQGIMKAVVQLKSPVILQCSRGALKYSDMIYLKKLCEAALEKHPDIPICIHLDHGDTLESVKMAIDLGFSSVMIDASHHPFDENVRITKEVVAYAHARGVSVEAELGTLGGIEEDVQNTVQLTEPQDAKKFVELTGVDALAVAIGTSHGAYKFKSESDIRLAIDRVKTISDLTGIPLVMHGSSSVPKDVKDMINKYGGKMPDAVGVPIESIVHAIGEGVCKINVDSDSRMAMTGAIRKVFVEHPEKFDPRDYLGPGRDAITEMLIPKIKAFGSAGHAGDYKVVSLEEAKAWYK

In test [1], `O=c1c(O)cccn1CP(=O)(O)O` [Compound 1, N-phosphonomethyl-3-hydroxy-2-pyridone] registered a Ki of 1200 ± 200 µM.

For `O=C(COP(=O)(O)O)[C@@H](O)[C@@H](O)[C@H](O)COP(=O)(O)O` [TBP, tagatose 1,6-bisphosphate], the Ki in test [2] is 1 µM.
